{"source": "patent US9808445B2", "about": "“Factor IXa inhibitors” (Merck Sharp & Dohme Corp., priority 2014, dated 2017)", "note": "pIC50: −log10 of the molar value. Counter-ions that a name gives are not always drawn.", "data": [{"target": "human factor IXa (Homo sapiens (Human), UniProt P00740)", "sequence (P00740 227-461)": "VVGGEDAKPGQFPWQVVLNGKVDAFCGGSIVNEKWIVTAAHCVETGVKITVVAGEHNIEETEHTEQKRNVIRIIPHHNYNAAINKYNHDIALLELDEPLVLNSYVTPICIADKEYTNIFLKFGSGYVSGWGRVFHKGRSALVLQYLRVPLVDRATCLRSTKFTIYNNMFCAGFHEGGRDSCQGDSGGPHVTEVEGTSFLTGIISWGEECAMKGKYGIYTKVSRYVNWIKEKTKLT", "sequence (P00740 47-191 partner)": "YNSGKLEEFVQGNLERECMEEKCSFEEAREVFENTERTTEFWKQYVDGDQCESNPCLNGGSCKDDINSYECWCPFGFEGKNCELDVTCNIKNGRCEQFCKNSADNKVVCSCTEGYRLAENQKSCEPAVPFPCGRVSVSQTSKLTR", "test": "Determination of inhibitory activity against factor IXa (fluorogenic substrate SPECTROFLUOR FIXa)", "type": "biochemical", "conditions": "Factor IXa enzyme assay human", "experimental": "Inhibitory activity against factor IXa was tested using the substrate SPECTROFLUOR FIXa (american diagnostica inc.; 500 West Avenue, Stamford, Conn. 06902 USA; Pr. No. 299F) and human factor IXa (american diagnostica inc.; Pr. No. 449b). Test substances were dissolved in buffer A (50 mM α,α,α-tris (hydroxymethyl) methylamine (Tris), 100 mM NaCl, 5 mM CaCl2, 15% (v/v) ethylene glycol, pH 8.0) were mixed with factor IXa (0.1 μg/ml final concentration). The enzyme reaction was started by addition of SPECTROFLUOR FIXa (100 μM final concentration). After incubation for 60 minutes at room temperature, the reaction was stopped by the addition of 20% (v/v) acetic acid solution, and then the fluorescence value was measured (Excitation Wavelength: 355 nm, Emission Wavelength; 460 nm) in a microtiter plate reader (ARVO 1420 Multilabel Counter; PerkinElmer).\nThe IC50 was calculated from a dilution series of the test substance with the aid of the software, Symyx Assay Explorer (Symyx Technologies, Inc.).", "values": [{"molecule": "Cc1cc2c(N)noc2c(N2C[C@@H]3CC[C@H]2[C@@H]3NC(=O)c2ccc(-c3cnc(=O)n(C)c3)cc2Cl)n1", "note": "(relative stereo) [Example 27, N-((1S*,4S*,7R*)-2-(3-Amino-5-methylisoxazolo[5,4-c]pyridin-7-yl)-2-azabicyclo[2.2.1]heptan-7-yl)-2-chloro-4-(1-methyl-2-oxo-1,2-dihydropyrimidin-5-yl)benzamide TFA salt]", "pIC50": "≥ 7.00"}, {"molecule": "Nc1noc2c(N3CC4CCC3C4NC(=O)c3ccc(-n4cncn4)cc3Cl)ncc(Cl)c12", "note": "(single isomer, unassigned) [Example 8.2, N-((1S*,4S*,7R*)-2-(3-Amino-4-chloroisoxazolo[5,4-c]pyridin-7-yl)-2-azabicyclo[2.2.1]heptan-7-yl)-2-chloro-4-(1H-1,2,4-triazol-1-yl)benzamide]", "pIC50": "6.00 to 7.00"}, {"molecule": "Cn1cc(-c2ccc(C(=O)N[C@@H]3[C@H]4CC[C@@H]3N(c3ncc(Cl)c5c(N)noc35)C4)c(Cl)c2)ccc1=O", "note": "(relative stereo) [Example 18, N-((1S*,4S*,7R*)-2-(3-Amino-4-chloroisoxazolo[5,4-c]pyridin-7-yl)-2-azabicyclo[2.2.1]heptan-7-yl)-2-chloro-4-(1-methyl-6-oxo-1,6-dihydropyridin-3-yl)benzamide]", "pIC50": "≥ 7.00"}, {"molecule": "Cc1ncn(-c2ccc(C(=O)N[C@@H]3[C@H]4CC[C@@H]3N(c3nccc5c(N)noc35)C4)c(Cl)c2)n1", "note": "(relative stereo) [Example 2, N-((1S*,4S*,7R*)-2-(3-Aminoisoxazolo[5,4-c]pyridin-7-yl)-2-azabicyclo[2.2.1]heptan-7-yl)-2-chloro-4-(3-methyl-1H-1,2,4-triazol-1-yl)benzamide]", "pIC50": "≥ 7.00"}, {"molecule": "Nc1noc2c(N3C[C@@H]4CC[C@H]3[C@@H]4NC(=O)c3ccc(-n4cnnc4)cc3Cl)ccc(Cl)c12", "note": "(relative stereo) [Example 5, N-((1S*,4S*,7R*)-2-(3-Amino-4-chlorobenzo[d]isoxazol-7-yl)-2-azabicyclo[2.2.1]heptan-7-yl)-2-chloro-4-(4H-1,2,4-triazol-4-yl)benzamide]", "pIC50": "≥ 7.00"}, {"molecule": "Nc1noc2c(N3C[C@@H]4CC[C@H]3[C@@H]4NC(=O)c3ccc(-n4cnc5ncccc54)cc3Cl)ncc(Cl)c12", "note": "(relative stereo) [Example 22, N-((1S*,4S*,7R*)-2-(3-Amino-4-chloroisoxazolo[5,4-c]pyridin-7-yl)-2-azabicyclo[2.2.1]heptan-7-yl)-2-chloro-4-(1H-imidazo[4,5-b]pyridin-1-yl)benzamide]", "pIC50": "≥ 7.00"}, {"molecule": "Nc1noc2c(N3C[C@@H]4CC[C@H]3[C@@H]4NC(=O)c3ccc(-c4ccc(=O)n(CCO)c4)cc3Cl)ncc(Cl)c12", "note": "(relative stereo) [Example 23, N-((1S*,4S*,7R*)-2-(3-Amino-4-chloroisoxazolo[5,4-c]pyridin-7-yl)-2-azabicyclo[2.2.1]heptan-7-yl)-2-chloro-4-(1-(2-hydroxyethyl)-6-oxo-1,6-dihydropyridin-3-yl)benzamide]", "pIC50": "≥ 7.00"}, {"molecule": "Nc1noc2c(N3C[C@@H]4CC[C@H]3[C@@H]4NC(=O)c3ccc(-n4cnnc4)cc3Cl)ncc(Cl)c12", "note": "(relative stereo) [Example 6, N-((1S*,4S*,7R*)-2-(3-Amino-4-chloroisoxazolo[5,4-c]pyridin-7-yl)-2-azabicyclo[2.2.1]heptan-7-yl)-2-chloro-4-(4H-1,2,4-triazol-4-yl)benzamide]", "pIC50": "≥ 7.00"}, {"molecule": "Cc1ncn(-c2cnc(C(=O)N[C@@H]3[C@H]4CC[C@@H]3N(c3ncc(Cl)c5c(N)noc35)C4)c(Cl)c2)n1", "note": "(single isomer, unassigned) [Example 29, N-((1S*,4S*,7R*)-2-(3-Amino-4-chloroisoxazolo[5,4-c]pyridin-7-yl)-2-azabicyclo[2.2.1]heptan-7-yl)-3-chloro-5-(3-methyl-1H-1,2,4-triazol-1-yl)picolinamide]", "pIC50": "≥ 7.00"}]}]}
